Measurements from US12162901B2, “N-acetylated sialic acids and related sialosides” (priority 2016, dated 2024).

Key:
BiNanH2 [1] = target: T1, BiNanH2 (Bifidobacterium longum, UniProt A0ACD7UU12); test: HPLC-based kinetic study of BiNanH2; type: biochemical, Bifidobacterium infantis; conditions: for kcat: BiNanH2, apparent, NaOAc buffer pH 5.0, 37° C., 10 min, spread and × 10^2 on wrapped line below; for activity of BiNanH2 towards the substrate: kinetic study, HPLC
T1 sequence (A0ACD7UU12 1-394): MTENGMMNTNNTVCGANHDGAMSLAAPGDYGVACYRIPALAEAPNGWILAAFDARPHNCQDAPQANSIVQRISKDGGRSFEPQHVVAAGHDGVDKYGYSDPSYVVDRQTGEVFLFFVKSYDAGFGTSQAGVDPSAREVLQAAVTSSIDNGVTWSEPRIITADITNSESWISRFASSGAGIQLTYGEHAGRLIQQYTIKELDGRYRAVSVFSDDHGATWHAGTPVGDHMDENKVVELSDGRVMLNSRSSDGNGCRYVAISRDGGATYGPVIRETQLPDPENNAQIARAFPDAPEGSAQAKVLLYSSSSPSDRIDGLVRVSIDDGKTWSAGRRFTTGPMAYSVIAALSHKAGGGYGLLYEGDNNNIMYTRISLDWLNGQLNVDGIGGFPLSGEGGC
Description: (§1) HPLC-based assays were carried out as described above for microtiter plate-based assays. The reactions were stopped by adding 40 μL of pre-chilled ethanol. The mixtures were then centrifuged and the supernatants were analyzed by Agilent 1290 Infinity HPLC system at 315 nm. […] A C18 reverse phase Rapid Resolution High Definition column (EclipsePlusC18 RRHD 1.8 μm, 2.1×50 mm, Agilent) was used for analyzing samples with Neu5Ac9NAcα2-3GalβpNP (2.1) or Neu5,9Ac2α2-6GalβpNP (2.20).
(§2) The reactions were stopped by adding 40 μL of pre-chilled ethanol. The mixtures were then centrifuged and the supernatants were analyzed by the HPLC system described above for HPLC-based assays. Apparent kinetic parameters were obtained by varying substrate concentrations from 0.1-40 mM (0.1, 0.2, 0.4, 1, 2, 4, 10, 20, and 40 mM) and fitting the data (the average values of duplicate assay results) into the Michaelis-Menten equation using Grafit 5.0.

SpNanC [2] = target: T2, SpNanC (Streptococcus pneumoniae, UniProt A0A0H2UQE4); test: HPLC-based kinetic study of SpNanC; type: biochemical; conditions: for kcat: SpNanC, apparent, MES buffer pH 6.5, 37° C., 10 min, spread and × 10^2 on wrapped line below
Description: as §1
as §2, with “After stopping the” for “The”, “reactions” for “reactions were stopped”, “ethanol, the” for “ethanol. The”, “were” for “were then”, “system as” for “system”, “above.” for “above for HPLC-based assays.”

V. cholerae sialidase = target: T3, V. cholerae sialidase (Vibrio cholerae serotype O1, UniProt P0C6E9); test: Sialidase substrate specificity of Leg glycosides (HPLC/capillary electrophoresis), V. cholerae sialidase; type: biochemical; conditions: pH 5.5
T3 construct: purchased Roche

A. ureafaciens sialidase = test: Sialidase substrate specificity of Leg glycosides (HPLC/capillary electrophoresis), A. ureafaciens sialidase; type: biochemical, Arthrobacter ureafaciens; conditions: pH 5.5
SpNanB = target: T4, SpNanB (Streptococcus pneumoniae serotype 4, UniProt Q54727, E68D/K536E/K577E/N393D/S59P); test: Sialidase substrate specificity of Leg glycosides (HPLC/capillary electrophoresis), SpNanB; type: biochemical; conditions: 37° C., 16 hs, pH 6.0
T4 construct: made in house

SpNanA = target: T5, SpNanA (Streptococcus pneumoniae, UniProt P62575); test: Sialidase substrate specificity of Leg glycosides (HPLC/capillary electrophoresis), SpNanA; type: biochemical; conditions: 37° C., 16 hs, pH 6.0
T5 construct: made in house

[3] = target: T6, human cytosolic sialidase hNEU2 (Homo sapiens, UniProt Q9Y3R4); test: Sialidase substrate specificity of Leg glycosides (HPLC/capillary electrophoresis), hNEU2; type: biochemical; conditions: 37° C., 16 hs, pH 5.0
T6 construct: made in house
T6 sequence (Q9Y3R4 whole entry): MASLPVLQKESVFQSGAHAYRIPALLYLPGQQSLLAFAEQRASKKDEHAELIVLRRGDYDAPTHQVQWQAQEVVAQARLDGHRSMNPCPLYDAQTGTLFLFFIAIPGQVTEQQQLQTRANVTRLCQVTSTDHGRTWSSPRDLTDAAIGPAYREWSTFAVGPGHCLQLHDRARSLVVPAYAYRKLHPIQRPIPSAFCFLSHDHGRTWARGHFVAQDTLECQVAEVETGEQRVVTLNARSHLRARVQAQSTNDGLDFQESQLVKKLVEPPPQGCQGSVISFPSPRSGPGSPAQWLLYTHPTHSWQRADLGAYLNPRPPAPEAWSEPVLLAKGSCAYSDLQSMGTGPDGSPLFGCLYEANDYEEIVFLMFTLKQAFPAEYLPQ

SpNanC [4] = target: T2, SpNanC; test: Sialidase substrate specificity of Leg glycosides (HPLC/capillary electrophoresis), SpNanC; type: biochemical; conditions: 37° C., 16 hs, pH 6.5
BiNanH2 [5] = target: T1, BiNanH2; test: Sialidase substrate specificity of Leg glycosides (HPLC/capillary electrophoresis), BiNanH2; type: biochemical, Bifidobacterium infantis; conditions: 37° C., 16 hs, pH 5.0
[6] = target: C. perfringens sialidase (CpNanH) (Clostridium perfringens, UniProt P10481); type: biochemical; conditions: 37° C., 16 hs, pH 5.0
[7] = substrate: CC(=O)N[C@H]1[C@H]([C@H](O)[C@H](O)CO)O[C@@](O[C@H]2[C@@H](O)[C@@H](CO)O[C@@H](Oc3ccc([N+](=O)[O-])cc3)[C@@H]2O)(C(=O)O)C[C@@H]1O; test: Kinetic studies for PmST1 α2-3-sialidase activity (HPLC); type: biochemical, Pasteurella multocida; conditions: other: PmST1, apparent, NaOAc buffer pH 5.5, CMP (0.4 mM), 37° C., 10 min
Description: as §2, with “Kinetic studies for PmST1 were performed in duplicates at 37° C. for 10 min. […] The reactions” for “The reactions”, “by adding 20 μL of” for “by adding 40 μL of”, “above for sialidase substrate specificity studies assays. Apparent” for “above for HPLC-based assays. Apparent”

[8] = substrate: CC(=O)N[C@@H]1C(O)C[C@](OC2C(O)[C@H](Oc3ccc([N+](=O)[O-])cc3)OC(CO)[C@@H]2O)(C(=O)O)OC1[C@H](NC(C)=O)[C@@H](C)O; test: as above; type: biochemical, Pasteurella multocida; conditions: other: PmST1, apparent, NaOAc buffer pH 5.5, CMP (0.4 mM), 37° C., 10 min
Description: as §2, with “Kinetic studies for PmST1 were performed in duplicates at 37° C. for 10 min. […] The reactions” for “The reactions”, “by adding 20 μL of” for “by adding 40 μL of”, “above for sialidase substrate specificity studies assays. Apparent” for “above for HPLC-based assays. Apparent”

Q: `CC(=O)NC[C@@H](O)[C@@H](O)[C@@H]1O[C@@](OC[C@H]2O[C@@H](Oc3ccc([N+](=O)[O-])cc3)[C@H](O)[C@@H](O)[C@H]2O)(C(=O)O)C[C@H](O)[C@H]1NC(C)=O` [2.8, 4-Nitrophenyl O-(5,9-diacetamido-3,5,9-trideoxy-D-glycero-α-D-galacto-2-nonulopyranosylonic acid)-(2→6)-O-β-D-galactopyranoside] was tested. Which kcat (BiNanH2 [1]) did it give?
A: (8.07 × 10^2 s^−1

Q: What does the source list for `CC(=O)N[C@H]1[C@H]([C@H](O)[C@H](O)CO)O[C@@](O[C@H]2[C@@H](O)[C@@H](CO)O[C@@H](Oc3ccc([N+](=O)[O-])cc3)[C@@H]2O)(C(=O)O)C[C@@H]1O` [2.17, Neu5Acα2-3GalβpNP]?
A: kcat (SpNanC [2]): (3.65 × 10^2 s^−1; kcat (BiNanH2 [1]): (1.66 × 10^2 s^−1

Q: What does the source list for `CC(=O)N[C@H]1[C@H]([C@H](O)[C@H](O)COC(C)=O)O[C@@](O[C@H]2[C@@H](O)[C@@H](CO)O[C@@H](Oc3ccc([N+](=O)[O-])cc3)[C@@H]2O)(C(=O)O)C[C@@H]1O` [2.19, Neu5,9Ac2α2-3GalβpNP]?
A: catalytic efficiency of SpNanC, fold higher than for 2.1 and 2.17 (SpNanC [2]; SpNanC kcat/KM ratio): 2.2-2.3 fold; kcat (SpNanC [2]): (3.78 × 10^2 s^−1; activity of BiNanH2 towards the substrate (BiNanH2 [1]): not high enough for obtaining apparent kinetics parameters

Q: With `CC(=O)NC1C(O)CC(OCC2OC(Oc3ccc([N+](=O)[O-])cc3)C(O)C(O)C2O)(C(=O)O)OC1C(O)C(O)COC(C)=O` (stereo not drawn) [2.20, Neu5,9Ac2α2-6GalβpNP] as the molecule, how does the “activity of BiNanH2 towards the substrate” value (BiNanH2 [1]) read?
A: not high enough for obtaining apparent kinetics parameters

Q: How did the kcat (SpNanC [2]) turn out when `CC(=O)NC[C@@H](O)[C@@H](O)[C@@H]1O[C@@](O[C@H]2[C@@H](O)[C@@H](CO)O[C@@H](Oc3ccc([N+](=O)[O-])cc3)[C@@H]2O)(C(=O)O)C[C@H](O)[C@H]1NC(C)=O` [2.1, 4-Nitrophenyl O-(5,9-diacetamido-3,5,9-trideoxy-D-glycero-α-D-galacto-2-nonulopyranosylonic acid)-(2→3)-O-β-D-galactopyranoside] was run?
A: (3.38 × 10^2 s^−1

Q: And the kcat (BiNanH2 [1])?
A: (1.08 × 10^2 s^−1

Q: Which results are given for `C[C@@H](O)[C@@H](N=[N+]=[N-])C1O[C@@](OCC2O[C@@H](Oc3ccc([N+](=O)[O-])cc3)C(O)C(O)[C@H]2O)(C(=O)O)CC(O)[C@H]1N=[N+]=[N-]` (stereo partly drawn) [3-14, Leg5,7diN3α2-6GalβpNP]?
A: activity of V. cholerae sialidase for the compound (V. cholerae sialidase): did not show activity; activity of A. ureafaciens sialidase for the compound (A. ureafaciens sialidase): did not show activity; activity of SpNanB for the compound (SpNanB): did not show activity; activity of SpNanA for the compound (SpNanA): did not show activity; activity of hNEU2 for the compound [3]: did not show activity; activity of SpNanC for the compound (SpNanC [4]): did not show activity; activity of BiNanH2 for the compound (BiNanH2 [5]): did not show activity; activity of C. perfringens sialidase (CpNanH) for the compound [6]: did not show activity

Q: Which “activity of V. cholerae sialidase for the compound” value (V. cholerae sialidase) does the source give for `CC(=O)N[C@@H]1C(O)C[C@](OCC2O[C@@H](Oc3ccc([N+](=O)[O-])cc3)C(O)C(O)[C@H]2O)(C(=O)O)OC1[C@H](NC(C)=O)[C@@H](C)O` (stereo partly drawn) [3-20, Leg5,7Ac2α2-6GalβpNP] here?
A: did not show activity

Q: What about the “activity of A. ureafaciens sialidase for the compound” value (A. ureafaciens sialidase) of the same molecule?
A: did not show activity

Q: What about the “activity of SpNanB for the compound” value (SpNanB) of the same molecule?
A: did not show activity

Q: And the “activity of SpNanA for the compound” value (SpNanA)?
A: did not show activity

Q: What about the “activity of hNEU2 for the compound” value [3] of the same molecule?
A: did not show activity

Q: And the “activity of SpNanC for the compound” value (SpNanC [4])?
A: did not show activity

Q: And the “activity of BiNanH2 for the compound” value (BiNanH2 [5])?
A: did not show activity

Q: And the “activity of C. perfringens sialidase (CpNanH) for the compound” value [6]?
A: did not show activity

Q: Which kcat (BiNanH2 [1]) does the source give for `CC(=O)N[C@H]1[C@H]([C@H](O)[C@H](O)CO)O[C@@](OC[C@H]2O[C@@H](Oc3ccc([N+](=O)[O-])cc3)[C@H](O)[C@@H](O)[C@H]2O)(C(=O)O)C[C@@H]1O` [2.18, Neu5Acα2-6GalβpNP] here?
A: (3.31 × 10^2 s^−1

B1: PmST1 (α2-3-sialidase activity) (Pasteurella multocida) (protein)
chain: KTITLYLDPASLPALNQLMDFTQNNEDKTHPRIFGLSRFKIPDNIITQYQNIHFVELKDNRPTEALFTILDQYPGNIELNIHLNIAHSVQLIRPILAYRFKHLDRVSIQQLNLYDDGSMEYVDLEKEENKDISAEIKQAEKQLSHYLLTGKIKFDNPTIARYVWQSAFPVKYHFLSTDYFEKAEFLQPLKEYLAENYQKMDWTAYQQLTPEQQAFYLTLVGFNDEVKQSLEVQQAKFIFTGTTTWEGNTDVREYYAQQQLNLLNHFTQAEGDLFIGDHYKIYFKGHPRGGEINDYILNNAKNITNIPANISFEVLMMTGLLPDKVGGVASSLYFSLPKEKISHIIFTSNKQVKSKEDALNNPYVKVMRRLGIIDESQVIFWDSLKQL
Q: B1 was tested. Which Km [7] did it give?
A: 4.73 ± 0.31 mM

Q: And the kcat [7]?
A: 9.26 ± 0.185 s⁻¹

Q: What about the kcat/Km [7] of the same molecule?
A: 1950 M⁻¹ s⁻¹

Q: And the Km [8]?
A: 17.38 ± 0.70 mM

Q: And the kcat [8]?
A: 1.16 ± 0.0217 s⁻¹

Q: And the kcat/Km [8]?
A: 66.7 M⁻¹ s⁻¹
